This note sets out measurements from patent US20230217975A1, “PERFUME COMPOSITION” (AJINOMOTO CO., INC., priority 2020, published 2023).

The subject of experiment [1] is panel of 4 experts. Kind of experiment: Sensory evaluation of strength of mouth-coating feel in mayonnaise (Examples 1, 5, 6). As to strength of mouth-coating feel, three components compound (II), β-caryophyllene oxide, and cyclotene: tested at 0.01 µg/mL. As to strength of mouth-coating feel, two components compound (II) and cyclotene: tested at 0.01 µg/mL. As to strength of mouth-coating feel, two components compound (II) and β-caryophyllene oxide: tested at 0.01 µg/mL. Format: in vivo. The following applies: for strength of mouth-coating feel, single component compound (I) / strength of mouth-coating feel, two components compound (I) and furfural / strength of mouth-coating feel, two components compound (I) and β-caryophyllene oxide / strength of mouth-coating feel, three components compound (I), β-caryophyllene oxide and furfural: compound (I) 10 weight ppb; for strength of mouth-coating feel, two components compound (I) and furfural / strength of mouth-coating feel, three components compound (I), β-caryophyllene oxide and furfural: furfural 500 weight ppb; for strength of mouth-coating feel, two components compound (I) and β-caryophyllene oxide / strength of mouth-coating feel, three components compound (I), β-caryophyllene oxide and furfural: β-caryophyllene oxide 500 weight ppb; for strength of mouth-coating feel, no use of compound (I), single component: 500 weight ppb. An excerpt: As a positive control, general commercially available mayonnaise (manufactured by Ajinomoto Co., Inc., trade name “Pure Select (registered trade mark) mayonnaise”, oil and fat content: 73%) was used. As a negative control (NC), commercially available mayonnaise (manufactured by Ajinomoto Co., Inc., trade name “Pure Select (registered trade mark) KOKUUMA (registered trade mark) 65% Calorie Cut”, oil and fat content: 23%) with a smaller oil and fat content as compared with positive control mayonnaise was used.
Experimental samples were produced by adding at least one compound selected from cyclotene, β-caryophyllene oxide, and furfural to the aforementioned commercially available mayonnaise (manufactured by Ajinomoto Co., Inc., trade name “Pure Select (registered trade mark) KOKUUMA (registered trade mark) 65% Calorie Cut”, oil and fat content: 23%) used as the negative control, such that the concentration of each compound in the food (mayonnaise) was a concentration shown in the following Tables 1 to 3 (in the following, each experimental sample is also to be referred to as “sample of experimental plot 1-1” to “sample of experimental plot 1-39”).
Cyclotene, octanoic acid, and isovaleric acid were added to the aforementioned commercially available mayonnaise (manufactured by Ajinomoto Co., Inc., trade name “Pure Select (registered trade mark) KOKUUMA (registered trade mark) 65% Calorie Cut”, oil and fat content: 23%) used as the negative control, such that the concentration of cyclotene in the food (mayonnaise) was 100 weight ppb, the concentration of octanoic acid was 200 weight ppb, and the concentration of isovaleric acid was 100 weight ppb to produce the sample of control plot 1.
A sensory evaluation was performed on the strength of mouth-coating feel of experimental samples, and the presence or absence of off-flavor.
For the evaluation of a mouth-coating feel, a panel of 4 experts ate each mayonnaise of positive control, negative control and experimental sample (samples of experimental plots 1-1 to 1-39 and control plot 1), and graded each experimental sample in 0.1 point increments (non-blind) in the range of 0.0 to 5.0 points, with the positive control being 5.0 points and the negative control being 0.0 point, by averaging the obtained scores of the panel of 4 experts. When the score was 1.0 or more, it was determined that there was an effect of enhancing the mouth-coating feel. The panel of 4 experts was trained in advance so that they have common understanding as to the degree of change in the mouth-coating feel that is required to change the score by 0.1 point.
Experimental samples were produced by adding at least one compound selected from compound (I) shown in the following Table 8 (any of cyclotene, γ-butyrolactone, 2-methyltetrahydrofuran-3-one, α-angelicalactone, maltol, 3-methyl-1,2-cyclohexanedione, γ-dodecanolactone, 5-dodecanolide, 4,5-dimethyl-3-hydroxy-2,5-dihydrofuran-2-one, and D-camphor), β-caryophyllene oxide, and furfural to the aforementioned commercially available mayonnaise (manufactured by Ajinomoto Co., Inc., trade name “Pure Select (registered trade mark) KOKUUMA (registered trade mark) 65% Calorie Cut”, oil and fat content: 23%) used as the negative control. Compound (I) was added such that the concentration of compound (I) in the food (mayonnaise) was 10 weight ppb, β-caryophyllene oxide was added such that the concentration of β-caryophyllene oxide in the food (mayonnaise) was 500 weight ppb, and furfural was added such that the concentration of furfural in the food (mayonnaise) was 500 weight ppb.
A sensory evaluation was performed on the strength of mouth-coating feel of experimental samples in the same manner as in Example 1.

Experiment [2] deals with panel of 4 experts. Described as above. Format: in vivo. The following applies: for strength of mouth-coating feel, single component compound (II) / strength of mouth-coating feel, two components compound (II) and cyclotene / strength of mouth-coating feel, two components compound (II) and β-caryophyllene oxide / strength of mouth-coating feel, three components compound (II), β-caryophyllene oxide, and cyclotene: compound (II) 10 weight ppb; for strength of mouth-coating feel, two components compound (II) and cyclotene / strength of mouth-coating feel, three components compound (II), β-caryophyllene oxide, and cyclotene: cyclotene 500 weight ppb; for strength of mouth-coating feel, two components compound (II) and β-caryophyllene oxide / strength of mouth-coating feel, three components compound (II), β-caryophyllene oxide, and cyclotene: β-caryophyllene oxide 500 weight ppb; for strength of mouth-coating feel, no use of compound (II), single component: 500 weight ppb as printed in b569.

As to `CC1=C(O)C(=O)OC1C` (stereo not shown) [4,5-dimethyl-3-hydroxy-2,5-dihydrofuran-2-one], in the experiment on panel of 4 experts [1], the “strength of mouth-coating feel, single component compound (I)” value (“strength … single component compound (I)” below) turned out to be 0.3; the “strength of mouth-coating feel, two components compound (I) and furfural” value (from here on “strength … (I) and furfural”) came out at 2.3; the “strength of mouth-coating feel, two components compound (I) and β-caryophyllene oxide” value (from here on “strength … (I) and β-caryophyllene oxide”) came out at 2.9; the “strength of mouth-coating feel, three components compound (I), β-caryophyllene oxide and furfural” value (shortened to “strength … β-caryophyllene oxide and furfural”) was found to be 4.2.

Consider `O=Cc1ccc(CO)o1` [5-(hydroxymethyl)furfural], for which, in the experiment on panel of 4 experts [2], the “strength of mouth-coating feel, single component compound (II)” value (“strength … single component compound (II)” for short) was 0.2; the “strength of mouth-coating feel, two components compound (II) and cyclotene” value (“strength … (II) and cyclotene” below) was determined as 2.5; the “strength of mouth-coating feel, two components compound (II) and β-caryophyllene oxide” value (shortened to “strength … (II) and β-caryophyllene oxide”) is reported as 2.2; the “strength of mouth-coating feel, three components compound (II), β-caryophyllene oxide, and cyclotene” value (“strength … β-caryophyllene oxide, and cyclotene” for short) turned out to be 4.3.

As for `CC(=O)c1ccc(C)o1` [2-acetyl-5-methylfuran], in the experiment on panel of 4 experts [2], the “strength … single component compound (II)” value is listed as 0.2; the “strength … (II) and cyclotene” value came out at 2.2; the “strength … (II) and β-caryophyllene oxide” value is 2.2; the “strength … β-caryophyllene oxide, and cyclotene” value is given as 4.4.

As to `c1coc(Cn2cccc2)c1` [1-furfurylpyrrole], in the experiment with panel of 4 experts [2], the “strength … single component compound (II)” value turned out to be 0.2; the “strength … (II) and cyclotene” value stood at 2.4; the “strength … (II) and β-caryophyllene oxide” value was found to be 2.2; the “strength … β-caryophyllene oxide, and cyclotene” value is recorded as 4.1.

As for `O=C1CCCO1` [γ-butyrolactone], in the experiment with panel of 4 experts [1], the “strength … single component compound (I)” value is 0.5; the “strength … (I) and furfural” value is 2.2; the “strength … (I) and β-caryophyllene oxide” value stood at 3.2; the “strength … β-caryophyllene oxide and furfural” value came to 4.2.

Consider `CC(=O)c1cc(C)oc1C` [3-acetyl-2,5-dimethylfuran], for which, in the experiment on panel of 4 experts [2], the “strength … single component compound (II)” value was 0.2; the “strength … (II) and cyclotene” value is on record as 2.5; the “strength … (II) and β-caryophyllene oxide” value is recorded as 2.0; the “strength … β-caryophyllene oxide, and cyclotene” value is given as 4.2.

`OCc1ccco1` [furfuryl alcohol]: in the experiment on panel of 4 experts [2], the “strength … single component compound (II)” value was 0.1; the “strength … (II) and cyclotene” value is 2.2; the “strength … (II) and β-caryophyllene oxide” value is listed as 2.0; the “strength … β-caryophyllene oxide, and cyclotene” value worked out at 4.1.

Turning to `CCCCCCCC1CCCC(=O)O1` (stereo not shown) [5-dodecanolide], in the experiment on panel of 4 experts [1], the “strength … single component compound (I)” value stood at 0.5; the “strength … (I) and furfural” value was 2.4; the “strength … (I) and β-caryophyllene oxide” value turned out to be 3.2; the “strength … β-caryophyllene oxide and furfural” value was found to be 4.2.

`Cc1ccc(C=O)o1` [5-methylfurfural]: in the experiment with panel of 4 experts [2], the “strength … single component compound (II)” value amounted to 0.2; the “strength … (II) and cyclotene” value came to 2.4; the “strength … (II) and β-caryophyllene oxide” value was found to be 2.1; the “strength … β-caryophyllene oxide, and cyclotene” value came out at 4.2.

Turning to `O=Cc1ccco1` [furfural], the “strength of mouth-coating feel, no use of compound (I), single component” value with panel of 4 experts [1] is reported as 0.3. In the experiment on panel of 4 experts [2], the “strength … single component compound (II)” value is recorded as 0.3; the “strength … (II) and cyclotene” value came out at 2.2; the “strength … (II) and β-caryophyllene oxide” value came out at 2.2; the “strength … β-caryophyllene oxide, and cyclotene” value worked out at 4.7.

Regarding `CC1=CCC(=O)O1` [α-angelicalactone], in the experiment on panel of 4 experts [1], the “strength … single component compound (I)” value is on record as 0.5; the “strength … (I) and furfural” value is listed as 2.3; the “strength … (I) and β-caryophyllene oxide” value was determined as 2.9; the “strength … β-caryophyllene oxide and furfural” value is reported as 4.2.

Consider `CC1OCCC1=O` (stereo not shown) [2-methyltetrahydrofuran-3-one], for which, in the experiment with panel of 4 experts [1], the “strength … single component compound (I)” value turned out to be 0.5; the “strength … (I) and furfural” value was determined as 2.4; the “strength … (I) and β-caryophyllene oxide” value is 3.2; the “strength … β-caryophyllene oxide and furfural” value is listed as 4.2.

As for `Cc1occc(=O)c1O` [maltol], in the experiment with panel of 4 experts [1], the “strength … single component compound (I)” value was 0.4; the “strength … (I) and furfural” value is on record as 2.3; the “strength … (I) and β-caryophyllene oxide” value came out at 3.0; the “strength … β-caryophyllene oxide and furfural” value is reported as 4.2.

In the case of `CC(=O)c1ccco1` [2-acetylfuran], in the experiment with panel of 4 experts [2], the “strength … single component compound (II)” value stood at 0.2; the “strength … (II) and cyclotene” value amounted to 2.4; the “strength … (II) and β-caryophyllene oxide” value is reported as 2.0; the “strength … β-caryophyllene oxide, and cyclotene” value is given as 4.3.

On to `CCC(=O)OCc1ccco1` [furfuryl propionate], for which, in the experiment on panel of 4 experts [2], the “strength … single component compound (II)” value worked out at 0.2; the “strength … (II) and cyclotene” value was 2.4; the “strength … (II) and β-caryophyllene oxide” value turned out to be 2.2; the “strength … β-caryophyllene oxide, and cyclotene” value was found to be 4.3.

For `CC1=C(O)C(=O)CC1` [cyclotene], in the experiment on panel of 4 experts [1], the “strength … single component compound (I)” value came to 0.5; the “strength … (I) and furfural” value amounted to 2.5; the “strength … (I) and β-caryophyllene oxide” value worked out at 3.2; the “strength … β-caryophyllene oxide and furfural” value was determined as 4.7. In addition, in the experiment on panel of 4 experts [2], the “strength of mouth-coating feel, no use of compound (II), single component” value is reported as 0.5.

For `CC1CCCC(=O)C1=O` (stereo not shown) [3-methyl-1,2-cyclohexanedione], in the experiment on panel of 4 experts [1], the “strength … single component compound (I)” value is 0.5; the “strength … (I) and furfural” value is reported as 2.3; the “strength … (I) and β-caryophyllene oxide” value is given as 3.0; the “strength … β-caryophyllene oxide and furfural” value is listed as 4.4.

Regarding `C=C1CC[C@H]2O[C@]2(C)CC[C@@H]2[C@@H]1CC2(C)C` [β-caryophyllene oxide], in the experiment with panel of 4 experts [1], the “strength of mouth-coating feel, no use of compound (I), single component” value came to 1.5. Besides, in the experiment with panel of 4 experts [2], the “strength of mouth-coating feel, no use of compound (II), single component” value came to 1.5.

Turning to `CC1(C)[C@@H]2CC[C@@]1(C)C(=O)C2` [D-camphor], in the experiment on panel of 4 experts [1], the “strength … single component compound (I)” value worked out at 0.4; the “strength … (I) and furfural” value was determined as 2.6; the “strength … (I) and β-caryophyllene oxide” value is on record as 3.1; the “strength … β-caryophyllene oxide and furfural” value was 4.2.
